Numbers after ± are expanded uncertainties.
Columns and labels:
[1] = xn = mol fraction of the nth substance listed; settings: 373.15 K; 93 kPa; Liquid; Vibrating tube method; x1 = 1
[2] = molar heat capacity at constant pressure; xn = mol fraction of the nth substance listed; settings: Liquid, Flow calorimetry

c1ccc(Oc2ccccc2)cc1 [diphenyl ether] + c1ccc(-c2ccccc2)cc1
Settings | mass density [kg/m3]
[1] | 1005.2 ± 1

molar heat capacity at constant pressure [J/K/mol], [2]
Settings | 100 kPa | 5000 kPa | 10000 kPa | 15000 kPa | 20000 kPa | 25000 kPa
293.15 K, x1 = 0.705 | 260.48 ± 5.3 | 258.49 ± 5.1 | 256.34 ± 5.1 | 255.18 ± 5.1 | 253.86 ± 5.1 | 252.7 ± 5.1
313.15 K, x1 = 0.55 | 273.53 ± 5.5 | 272.22 ± 5.4 | 270.76 ± 5.4 | 269.94 ± 5.4 | 269.29 ± 5.4 | 268.96 ± 5.4
313.15 K, x1 = 0.705 | 270.74 ± 5.5 | 269.58 ± 5.5 | 267.76 ± 5.3 | 267.1 ± 5.3 | 265.94 ± 5.3 | 265.11 ± 5.3
313.15 K, x1 = 0.85 | 272.02 ± 5.5 | 270.67 ± 5.4 | 270.17 ± 5.4 | 269.67 ± 5.4 | 269.5 ± 5.4 | 269.33 ± 5.4
313.15 K, x1 = 1 | 274.37 ± 5.4 | 273.52 ± 5.4 | 273.18 ± 5.4 | 272.5 ± 5.4 | 272.16 ± 5.4 | –
333.15 K, x1 = 0.55 | 285.75 ± 5.7 | 284.45 ± 5.7 | 284.29 ± 5.7 | 283.96 ± 5.7 | 283.8 ± 5.7 | –
333.15 K, x1 = 0.705 | 279.34 ± 5.6 | 278.02 ± 5.6 | 276.86 ± 5.6 | 275.54 ± 5.5 | 274.21 ± 5.5 | 273.39 ± 5.5
333.15 K, x1 = 0.85 | 285.1 ± 5.7 | 284.6 ± 5.7 | 284.27 ± 5.7 | 284.1 ± 5.7 | 283.76 ± 5.7 | 283.43 ± 5.7
333.15 K, x1 = 1 | 286.97 ± 5.8 | 285.95 ± 5.8 | 284.93 ± 5.8 | 284.59 ± 5.8 | 283.39 ± 5.6 | 282.71 ± 5.6
353.15 K, x1 = 0.55 | 295.7 ± 5.9 | 294.88 ± 5.9 | 294.55 ± 5.9 | 294.39 ± 5.9 | 293.25 ± 5.9 | 293.09 ± 5.9
353.15 K, x1 = 0.705 | 290.93 ± 5.8 | 289.27 ± 5.8 | 287.62 ± 5.8 | 286.96 ± 5.8 | 285.47 ± 5.8 | 283.98 ± 5.6
353.15 K, x1 = 0.85 | 299.2 ± 6 | 297.86 ± 6 | 297.69 ± 6 | 297.35 ± 6 | 297.19 ± 6 | 296.68 ± 5.9
353.15 K, x1 = 1 | 299.05 ± 6 | 298.03 ± 6 | 296.84 ± 6 | 296.33 ± 6 | 295.48 ± 6 | 294.63 ± 6
